Data as given in patent US20170204187A1, “METHODS OF TREATING AND PREVENTING CANCER DRUG RESISTANCE” (Genentech, Inc., priority 2014, published 2017).
“Also recorded” adds a separate entry of the source.

Assays:
[1] = system: LOX-IMVI VemR cell line; assay: LOX-IMVI VemR resensitization to vemurafenib by FGFR antagonists (FIG. 2B); format: cell-based; settings: for effect on the cell line / resensitization to vemurafenib: FGFR antagonist 1 μM in combination with 5 μM vemurafenib
Experimental: FIG. 2A-E.|A cell line (“LOX-IMVI VemR”) was engineered to be resistant to vemurafienib. A, An image of an immunoblot of 11 cell lines probed for FGFR1 expression. B, The LOX-IMVI VemR cell line is not affected by 5 μM vemurafenib (i.e., “PLX”) as shown in the DMSO plot; however, the cell line is affected by 5 μM vemurafenib in combination with an antagonist of FGFR signalling (i.e., BGJ398, PD173074, and AP24534).
The Lox-IMVI VemR cell line was used as the model of acquired resistance in B-raf mutant melanoma. 11 cell lines were tested for FGFR1 expression using a Western blot. Of the cell lines tested, FGFR1 expression was detected in the LOX-IMVI (vemurafenib sensitive) and LOX-IMVI VemR (vemurafenib resistant) lines (FIG. 2A).

[2] = system: LOX-IMVI VemR cells; assay: In vitro combination study vemurafenib + BGJ398, Vem-resistant cell outgrowth (FIG. 3A); format: cell-based
[3] = system: SK-MEL-24 cell line; assay: In vitro combination study vemurafenib + BGJ398 (FIG. 3A); format: cell-based; settings: PLX4032 combined with FGFR antagonist
Excerpt: (§1) FIG. 3A-B.|FGFR-inhibition prevents Vem-resistant cell outgrowth. […] B, Expression patterns of select proteins are shown on West Blots in the presence of vemurafenib (PLX4032), an antagonist of FGFR signalling (NV-BGJ398), and/or FGF2.

[4] = system: SK-MEL-3 cell line; assay: as above; format: cell-based; settings: PLX4032 combined with FGFR antagonist
Excerpt: as §1

[5] = system: LOX-IMVI tumors; assay: In vivo tumor volume, parental vemurafenib sensitive tumors; settings: for tumor volume: vemurafenib 25 mg/kg
Experimental: (§2) FIG. 4A-C.|The LOX-IMVI VemR cell line has FGFR-mediated vemurafenib resistance in vivo. A, LOX-IMVI cells (parental cell line) are sensitive to vemurafenib.
(§3) The vemurafenib resistance and recovery of the LOX-IMVI VemR cell line was also studied in vivo. The tumor volume (mm^3) was measured in LOX-IMVI (parental, vemurafenib sensitive) tumors and in LOX-IMVI VemR (vemurafenib resistant) tumors in the presence of vemurafenib, BGJ398, or vemurafenib and BGJ398 ([…]).

[6] = system: LOX-IMVI VemR tumors; assay: In vivo tumor volume, vemurafenib resistant tumors; settings: for tumor volume / efficacy: combination treatment of vemurafenib and BGJ398
Experimental: as §2, §3

[7] = system: HCC1569 cells; assay: Innate resistance model, sensitization to lapatinib (FIG. 20A); format: cell-based; settings: 100 nM BGJ398 with 5 μM lapatinib
Experimental: (§4) FIG. 20 A-C.|HER2+ breast cancer models of innate resistance. A, FGFR inhibitor (BGJ398) sensitizes HCC1569 cells to lapatinib. B, FGFR inhibitor (BGJ398) sensitizes MDA-MB-453 cells to lapatinib.
(§5) The innate resistant HER2+ breast cancer cell lines were HCC1569 and MDA-MB-453. HC1569 expressed FGFR2 (detected by Western blot) and secreted FGF2 (detected by ELISA). FGFR ECD chimeras from the HCC1569 line were sensitized to lapatinib. Furthermore, HC1569 cells that were treated with FGFR inhibitor(s) sensitized the cells to lapatinib. […] MDA-MB-453 cells that were treated with FGFR inhibitor(s) sensitized the cells to lapatinib.
(§6) HCC1569 and MDA-MB-453 cells were treated with 100 nM afatinib, 100 nM crizotinib, or 100 nM BGJ398 in the presence or absence of 5 μM lapatinib (FIGS. 20A and 20B).

[8] = system: MDA-MB-453 cells; assay: Innate resistance model, sensitization to lapatinib (FIG. 20B); format: cell-based; settings: 100 nM BGJ398 with 5 μM lapatinib
Experimental: as §4, §5, §6

[9] = system: HER2+ breast cancer models of innate resistance; assay: Tumor volume, lapatinib + FGFR inhibitor (FIG. 20C); format: in vivo; settings: combination treatment of lapatinib and BGJ398
[10] = system: HER2+ breast cancer cell lines (AU565, BT-474, HCC1954, SK-BR-3, and UACC-893); assay: Block of FGF2 rescue in lapatinib/FGF2 treated cells (FIG. 19A); format: cell-based; settings: cells treated with lapatinib and FGF2, then FGFR pan inhibitor
Experimental: FIG. 19 A-D.|FGFR4 mediates FGF2 rescue in HER2+ breast cancer. A, Percent rescue of cells treated with lapatinib and FGF2. B, Immunoblot of cells treated with lapatinib and FGF2. C, TCGA breast cancer samples (n=913) show high […] levels in breast cancer. D, HER2+ breast cancer cells are enriched for high FGFR4.
HER2+ breast cancer cell lines (AU565, BT-474, HCC1954, SK-BR-3, and UACC-893) were treated with lapatinib and FGF2. Thereafter, the cells were either exposed to siRNA targeting FGFR1, FGFR2, FGFR3, or FGFR4 or exposed to the FGFR pan inhibitor BGJ398 (FIG. 19A). […] Immunoblots were also performed to detect IP/pTyr/IB:FGFR4, FGFR4, pERK, ERK, and actin (control) in cells treated with lapatinib in the presence and absence of FGF2 (FIG. 19B).

[11] = system: 624 melanoma cells made resistant to PLX4032; assay: pAKT in PLX4032-resistant 624 melanoma cells (FIG. 8B-C); format: cell-based; settings: treated with PLX4032
Experimental: FIG. 8 A-C.|Activation of PI3K represents an alternative mechanism of B-raf-mutant melanomas. A, A synthetic lethal chemical screen identified PI3K-dependent resistance to PLX4032. […] Co-treatment with a […] was needed to growth arrest the 624 ml VemR cells in the presence of PLX4032.

[12] = system: B-raf mutant melanoma; settings: cited from earlier work
[13] = system: LOX-IMVI cells; assay: Secreted factor rescue screen on LOX-IMVI (FIG. 23); format: cell-based
Excerpt: FIG. 23 A-C.|Vemurafenib resistant and sensitive cell lines can be used to determine and anticipate paths to resistance in patients. LOX-IMVI cells were rescued by FGF1, FGF2, EGF, and HGF in the screen. A, LOX-IMVI VemR cells were re-sensitized to PLX4032 by FGFR inhibition. B, Dual resistant LOX-IMVI VemR/FGFRi (i.e., resistant to vemurafenib and FGFR inhibitor) cells were re-sensitized to PLX4032 by EGFR inhibition. C, Triple resistant LOX-IMVI VemR/FGFRi/Erlotinib cells were re-sensitized to PLX4032 by MET inhibition.

[14] = system: HER2+ breast cancer cell lines; assay: FGF rescue screen, breast cancer lines (FIG. 15A); format: cell-based; settings: 10 HER2+ breast cancer cell lines
Experimental: (§7) FIG. 15 A-C.|Screen of 10 melanoma cell lines and 10 breast cancer lines was performed to determine the role of FGF signalling in drug resistance. […] C, Summary of FGF receptors, their subfamily, and their ligands.
(§8) FGF signalling and resistance was studied in 10 HER2+ breast cancer cell lines and in 10 B-raf mutant melanoma cell lines (FIG. 15). 7 of the 10 HER2+ breast cancer cell lines were rescued by FGF2 (FIG. 15A). 8 of the 10 B-raf mutant melanoma cell lines were rescued by FGF2 (FIG. 15B). Subsequent analysis determined that 50-70% of the melanoma lines with the V600E mutation were rescued by FGF2 (n=30).

[15] = system: B-raf mutant melanoma cell lines; assay: Secreted factor / FGF rescue screen, melanoma lines (FIG. 1, FIG. 15B); format: cell-based; settings: for rescue of tumor cells from B-raf and MEK antagonists: melanoma cell line, FIG. 1B
Experimental: (§9) FIG. 1A-D.|Factors secreted by tumor cells and/or the tumor microenvironment contribute to drug resistance through activation of cell-surface receptors. […] D, Secreted growth factors which promote resistance to PLX4032 reactivate MAPK and PI3K pathways. Activation of MAPK by FGF2, MAPK and AKT by HGF and AKT by NRG1 and SCF are shown in 624 MEL cells in the presence of PLX4032. Treatments were 5 μM PLX4032 for 24 hours and 50 ng·mL FGF2, HGF, NRGB1, or SCF for 10 minutes.
as §7, §8

[16] = system: 624 MEL cells; assay: Immunoblot of MAPK and PI3K pathway reactivation by secreted growth factors (FIG. 1D); format: cell-based; settings: 5 μM PLX4032 for 24 hours; 50 ng·mL factor for 10 minutes
Experimental: as §9

[17] = system: HER2+ breast cancer cells; assay: Immunoblot of downstream signalling after FGF2 exposure (FIG. 16); format: cell-based; settings: FGF2 50 ng/mL for 10 minutes or 24 hours, with or without lapatinib 2 μM
Experimental: FIG. 16 A-B.|FGF2 reactivates key signalling pathways to promote resistance and stimulates sustained activation of downstream signaling. A, An immunoblot of cells exposed to FGF2 for 10 min compared to cells absent exposure. B, An immunoblot of cells exposed to FGF2 for 24 hrs compared to cells absent FGF2 exposure.
Furthermore, it was determined that FGF2 reactivates key signalling pathways to promote resistance (FIG. 16). This was shown in a cell assay wherein HER2+ breast cancer cells were exposed to FGF2 (50 ng·mL) for 10 minutes in the presence or absence of lapatinib (2 μM) (FIG. 16A). Similarly, an assay was performed wherein HER2+ breast cancer cells were exposed to FGF2 (50 ng/mL) for 24 hours in the presence or absence of lapatinib (2 μM) (FIG. 16B).

[18] = system: B-raf-mutant melanomas; assay: Immunoblot of MAPK reactivation in FGF2-mediated rescue (FIG. 7A); format: cell-based
Excerpt: FIG. 7 A-D.|Reactivation of MEK/ERK downstream of B-raf is a core mechanism of resistance in B-raf-mutant melanomas. A, MAPK signalling is required for FGF2-mediated resistance as shown by immunoblots. […] C, A synthetic lethal chemical screen was utilized to identify signalling pathways mediating resistance to PLX4032 in 12 acquired-resistance melanoma cell lines. […] D, Examples of the synthetic lethal chemical screen shown in FIG. 7C on specific cell lines.

Cc1ccc(C(=O)Nc2ccc(CN3CCN(C)CC3)c(C(F)(F)F)c2)cc1C#Cc1cnc2cccnn12 [AP24534]
effect on the cell line / resensitization to vemurafenib [1]: resensitized to vemurafenib; also recorded: affected

CCN1CCN(c2ccc(Nc3cc(N(C)C(=O)Nc4c(Cl)c(OC)cc(OC)c4Cl)ncn3)cc2)CC1 [BGJ398, 3-(2,6-Dichloro-3,5-dimethoxy-phenyl)-1-{6-[4-(4-ethyl-piperazin-1-yl)-phenylamino]-pyrimidin-4-yl}-1-methyl-urea]
effect on the cell line / resensitization to vemurafenib [1]: resensitized to vemurafenib; also recorded: affected
response to treatment ([2]; combination treatment of vemurafenib and BGJ398): high response
response to treatment ([2]; single agent alone): minimal response
response to PLX4032 [3]: augmented response
response to PLX4032 [4]: augmented response
re-emergence of tumors following the end of treatment ([5]; co-treatment with BGJ398 and vemurafenib): can be prevented
tumor volume ([5]; BID and BGJ398 15 mg/kg, QD): tumor volume decreased
tumor volume / efficacy [6]: did show a decrease in tumor volume
tumor volume / efficacy ([6]; listed as NVP-BGJ398): potent efficacy
sensitization to lapatinib [7]: rescue the cell lines from drug resistance; also recorded: sensitizes
sensitization to lapatinib [8]: rescue the cell lines from drug resistance; also recorded: sensitizes
tumor volume [9]: decrease tumor volume; also recorded: Tumor volume decreases
percent rescue from acquired resistance to lapatinib and FGF2 [10]: greatest percent rescue

CCN(CC)CCCCNc1ncc2cc(-c3cc(OC)cc(OC)c3)c(NC(=O)NC(C)(C)C)nc2n1 [PD173074, N-[2-[[4-(diethylamino)butyl]amino]-6-(3,5-dimethoxyphenyl)pyrido[2,3-d]pyrimidin-7-yl]-N′-(1,1-dimethylethyl)-urea]
effect on the cell line / resensitization to vemurafenib [1]: resensitized to vemurafenib; also recorded: affected

CCCS(=O)(=O)Nc1ccc(F)c(C(=O)c2c[nH]c3ncc(-c4ccc(Cl)cc4)cc23)c1F [vemurafenib, N-(3-{[5-(4-chlorophenyl)-1H-pyrrolo[2,3-b]pyridin-3-yl]carbonyl}-2,4-difluorophenyl)propane-1-sulfonamide]
effect on the cell line ([1]; 5 μM vemurafenib (PLX) alone, DMSO plot): not affected
response to treatment ([2]; single agent alone): minimal response
tumor volume ([5]; BID alone): tumor volume decreased; also recorded: sensitive
tumor volume ([6]; vemurafenib alone): did not show a decrease in tumor volume
pAKT [11]: increase in pAKT
time to relapse following maximal response ([12]; majority of patients, residual tumor): ≤ 1 year
patients who respond ([12]; patients): majority
patients with tumor progression early in therapy ([12]; patients): 10%

FGF1: secreted factor, FGFR ligand
rescue in the secreted factor screen [13]: rescued

FGF2: secreted growth factor, FGFR ligand, promotes resistance
cell lines rescued by FGF2 [14]: 7 of the 10
cell lines rescued by FGF2 ([15]; 10 B-raf mutant melanoma cell lines): 8 of the 10
rescue of tumor cells from B-raf and MEK antagonists [15]: most broadly and potently
melanoma lines with the V600E mutation rescued by FGF2 ([15]; subsequent analysis, n=30): 50-70%
pathway activated in the presence of PLX4032 [16]: MAPK
rescue in the secreted factor screen [13]: rescued
downstream signalling [17]: sustained activation of downstream signalling
MAPK signalling in the presence of PLX4032 [18]: activates MEK and ERK

HGF: secreted growth factor which promotes resistance to PLX4032
rescue of tumor cells from B-raf and MEK antagonists [15]: most broadly and potently
pathway activated in the presence of PLX4032 [16]: MAPK and AKT
rescue in the secreted factor screen [13]: rescued

SCF: secreted growth factor which promotes resistance to PLX4032
pathway activated in the presence of PLX4032 [16]: AKT
